This is an account of results in BindingDB's records for doi:10.7270/Q27H1H0J (Srmlsc, 2008).

In this experiment the target is T1, M1 family aminopeptidase (Plasmodium falciparum (isolate FcB1 / Columbia), UniProt O96935).
T1 sequence (O96935 whole entry): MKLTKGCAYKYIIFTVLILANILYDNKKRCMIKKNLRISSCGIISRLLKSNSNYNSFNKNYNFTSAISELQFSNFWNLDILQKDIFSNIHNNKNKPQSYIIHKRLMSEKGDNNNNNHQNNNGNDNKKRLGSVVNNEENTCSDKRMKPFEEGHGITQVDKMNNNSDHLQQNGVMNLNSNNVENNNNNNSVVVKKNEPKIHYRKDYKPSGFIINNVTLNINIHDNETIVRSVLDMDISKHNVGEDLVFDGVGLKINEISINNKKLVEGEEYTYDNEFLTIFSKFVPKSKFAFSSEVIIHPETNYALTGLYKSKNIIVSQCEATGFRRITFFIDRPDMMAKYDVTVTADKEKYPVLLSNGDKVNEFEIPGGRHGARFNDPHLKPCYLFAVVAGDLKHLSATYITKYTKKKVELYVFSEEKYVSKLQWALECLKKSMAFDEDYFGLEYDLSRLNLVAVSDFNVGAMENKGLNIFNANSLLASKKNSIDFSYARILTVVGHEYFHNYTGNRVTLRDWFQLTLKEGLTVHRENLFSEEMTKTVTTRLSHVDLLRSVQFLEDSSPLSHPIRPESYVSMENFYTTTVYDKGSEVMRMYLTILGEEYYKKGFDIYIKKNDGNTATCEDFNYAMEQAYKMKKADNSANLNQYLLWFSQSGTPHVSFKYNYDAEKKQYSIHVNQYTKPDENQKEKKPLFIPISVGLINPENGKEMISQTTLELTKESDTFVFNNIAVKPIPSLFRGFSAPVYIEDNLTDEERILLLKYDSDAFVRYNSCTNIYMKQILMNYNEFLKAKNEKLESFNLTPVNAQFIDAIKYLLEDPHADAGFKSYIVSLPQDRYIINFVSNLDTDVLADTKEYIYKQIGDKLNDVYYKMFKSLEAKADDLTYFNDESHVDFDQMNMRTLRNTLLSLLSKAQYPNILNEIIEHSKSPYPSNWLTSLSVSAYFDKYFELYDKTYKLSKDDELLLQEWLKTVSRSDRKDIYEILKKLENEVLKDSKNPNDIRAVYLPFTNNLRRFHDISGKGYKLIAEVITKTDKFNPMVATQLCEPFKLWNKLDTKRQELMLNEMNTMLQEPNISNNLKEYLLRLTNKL
The experiment in a line: malaria alanyl aminopeptidase activity blockers – biochemical, fluorogenic H-Leu-NHMec substrate, 1536-well (AID 1445).

Compound `CCOC(=O)C1C(=O)C(=Cc2ccc(OCC(=O)O)c(OC)c2)SC1=Nc1ccc(OC)cc1` (stereo unspecified) [2-[4-[(Z)-[4-ethoxycarbonyl-5-[(4-methoxyphenyl)amino]-3-oxidanylidene-thiophen-2-ylidene]methyl]-2-methoxy-phenoxy]ethanoic acid] had an IC50 of 87.3 µM.
The compound `O=C1NC(=O)C(N=Nc2cc([N+](=O)[O-])ccc2O)C(=O)N1` returned an IC50 of 11.4 µM.
`CCOC(=O)C1C(=O)C(=Cc2ccc(OCC(=O)O)c(OCC)c2)SC1=Nc1ccccc1` (stereo unspecified) [2-[4-[(Z)-(5-anilino-4-ethoxycarbonyl-3-oxo-2-thiophenylidene)methyl]-2-ethoxyphenoxy]acetic acid] came in with an IC50 of 60.2 µM.
For `Clc1ccc(CN=Nc2nnn[nH]2)cc1`, half-maximal inhibition (IC50) required 92.8 µM.
`COC1=CC(C=NNC(=O)C(Cc2c[nH]c3ccccc23)NC(=O)OCC(C)C)C=C([N+](=O)[O-])C1=O` (stereo unspecified) [2-methylpropyl N-[3-(1H-indol-3-yl)-1-[2-[(E)-(3-methoxy-5-nitro-4-oxidanylidene-cyclohexa-2,5-dien-1-ylidene)methyl]hydrazinyl]-1-oxidanylidene-propan-2-yl]carbamate] yielded an IC50 of 16.7 µM.
In turn, `CCC(=O)N1N=C(C2C(=O)N(C)C(=O)N(C)C2=O)CC1c1ccccc1` (stereo unspecified) returned an IC50 of 41.9 µM.
In the case of `Cc1cc(C(=O)NN=CC2C=C(Cl)C=C([N+](=O)[O-])C2=O)[nH]n1` (stereo unspecified) [SMR000414694], the IC50 was found to be 52.3 µM.
The compound `CS(=O)(=O)Nc1nc2n(n1)C(c1ccccc1)CC(c1ccc(Br)cc1)=N2` (stereo unspecified) gave a half-inhibitory concentration (IC50) of 45.3 µM.
As to `CCCCCCC(=O)N(O)c1cc(O)n(-c2ccccc2)c1O` [SMR000043985], 66.5 µM corresponded to half-maximal inhibition (IC50).
`CCOC(=O)C1C(=O)C(=Cc2ccc(OCC(=O)O)c(OCC)c2)SC1=Nc1ccc(C)cc1` (stereo unspecified) [(2-ethoxy-4-{[4-(ethoxycarbonyl)-5-[(4-methylphenyl)amino]-3-oxo-2(3H)-thienylidene]methyl}phenoxy)acetic acid] had a 50% inhibitory concentration (IC50) of 48.6 µM.
As to `O=C(Cn1cnc([N+](=O)[O-])n1)N/N=C/C1C=C(Cl)C=CC1=O` (stereo unspecified) [SMR000312480], it took 13.3 µM to reach half-maximal inhibition (IC50).
Compound `O=C1C([N+](=O)[O-])=CC=CC1/C=N/NC(=O)C1COc2ccccc2O1` (stereo unspecified) [N'-[(E)-(5-nitro-6-oxo-1-cyclohexa-2,4-dienylidene)methyl]-2,3-dihydro-1,4-benzodioxin-3-carbohydrazide] showed a concentration for half-maximal inhibition (IC50) of 31.4 µM.
`COc1ccccc1C1CC(c2ccc(Cl)cc2)=Nc2nc(-n3c(O)ccc3O)nn21` (stereo unspecified) [MLS000040652] gave an IC50 of 31.3 µM.
Under `O=C1OC(C(C=Nc2cc(Cl)ccc2O)[N+](=O)[O-])c2ccccc21` (stereo unspecified) [3-[(E)-2-[(5-chloranyl-2-oxidanyl-phenyl)amino]-1-nitro-ethenyl]-3H-2-benzofuran-1-one] stands 48.8 µM.
Then `C=c1[nH]n(-c2ccc(Cl)c(C(=O)O)c2)c(=O)c1=Cc1ccc(-c2ccc(C(=O)O)cc2)o1` [SMR000312901], with 2.41 µM.
Under `O=C1Nc2ccccc2SC1C=NCc1ccccc1Cl` (stereo unspecified) [2-{[(2-chlorobenzyl)amino]methylene}-2H-1,4-benzothiazin-3(4H)-one] stands 5.63 µM.
For `CCOc1cc(C2C3=C(CCCC3=O)N=C3CCCC(=O)C32)cc(Cl)c1O` (stereo unspecified) [9-(3-Chloro-5-ethoxy-4-hydroxy-phenyl)-3,4,6,7,9,10-hexahydro-2H,5H-acridine-1,8-dione], the IC50 was 23.9 µM.
Under `CNC(=S)N/N=C1\C(=O)Nc2ccccc21` [1-methyl-3-[(2-oxoindol-3-yl)amino]thiourea] stands 47.9 µM; under `CCN1C(=O)/C(=N\NC(=O)c2cccs2)c2ccccc21` [MLS000760154], 70.2 µM; under `CC(=O)Nc1ccc(S(=O)(=O)Oc2cccc(CN=Nc3nc(O)c(CC(=O)O)s3)c2)cc1` [(2-{[3-({[4-(acetylamino)phenyl]sulfonyl}oxy)benzylidene]hydrazono}-4-oxo-1,3-thiazolidin-5-yl)acetic acid], 52.8 µM.
`CCOC(=O)C1C(CC)=Nc2ccccc2N=C1NS(=O)(=O)c1cc(Br)ccc1Br` (stereo unspecified) [MLS000775637]: the half-maximal inhibitory concentration (IC50) was 30.3 µM.
Compound `O=[N+]([O-])c1cc(Br)c(O)c(CN=Nc2nnnn2-c2cccc3ccccc23)c1` [(6E)-2-bromo-6-[[2-(1-naphthalen-1-yltetrazol-5-yl)hydrazinyl]methylidene]-4-nitrocyclohexa-2,4-dien-1-one] returned an IC50 of 6.79 µM.
As for `COC1=CC(C=NNC(=O)C(Cc2c[nH]c3ccccc23)NC(=O)OCc2ccccc2)C=C([N+](=O)[O-])C1=O` (stereo unspecified) [benzyl N-[3-(1H-indol-3-yl)-1-[2-[(E)-(3-methoxy-5-nitro-4-oxocyclohexa-2,5-dien-1-ylidene)methyl]hydrazinyl]-1-oxopropan-2-yl]carbamate], the 50% inhibitory concentration (IC50) was found to be 4.75 µM.
Then `C=c1[nH]n(-c2nnc(C)c(=O)[nH]2)c(=O)c1=Cc1ccc(N(CC)CC)cc1` [3-{4-[1-(4-Diethylamino-phenyl)-meth-(Z)-ylidene]-3-methyl-5-oxo-4,5-dihydro-pyrazol-1-yl}-6-methyl-4H -[1,2,4]triazin-5-one], with 42.6 µM.
As for `O=C1CC(c2ccco2)CC(=O)C1=CNc1cc(Cl)ccc1O` (stereo unspecified) [MLS000037985], the IC50 was 5.58 µM.
Take `CC(NNC(=O)c1cccc(Cl)c1)=C1C(=O)c2ccccc2C1=O`: half-maximal inhibition (IC50) was put at 40.8 µM.
Under `Cc1c(N2C(=O)C(=O)C(C(=O)c3ccc(Cl)cc3)C2c2ccccc2)c(=O)n(-c2ccccc2)n1C` (stereo unspecified) [MLS000331609] stands 62.1 µM; under `CCOC(=O)C1C(=O)C(=Cc2ccc(OCC(=O)O)c(OCC)c2)SC1=Nc1ccc(OC)cc1` (stereo unspecified) [MLS000704394], 36.3 µM; under `C=c1c(C#N)c2[nH]c(N)c(C#N)c(C)c-2c1=Cc1ccc(-c2ccccc2C(=O)O)o1` [SMR000277284], 52.2 µM.
Then `Oc1ccc(O)n1-c1nc2n(n1)C(c1ccccc1)CC(c1ccc(Br)cc1)=N2` (stereo unspecified) [MLS000037189], with 69.7 µM; and `COc1ccc(CN=Nc2nc(O)c(CC(=O)O)s2)cc1OCc1ccc(Cl)cc1` [2-[2-[2-[[3-[(4-chlorophenyl)methoxy]-4-methoxy-phenyl]methylidene]hydrazinyl]-4-oxidanylidene-1,3-thiazol-5-yl]ethanoic acid], with 66.7 µM.
In the case of `COc1ccc(-c2n[nH]c3c2C2(C(=O)N(CC(=O)O)c4ccccc42)C(C#N)C(=N)O3)cc1OC` (stereo unspecified) [2-[6-amino-5-cyano-3-(3,4-dimethoxyphenyl)-2'-oxo-1'-spiro[2H-pyrano[2,3-c]pyrazole-4,3'-indole]yl]acetic acid], half-maximal inhibition (IC50) was put at 43.3 µM.
As for `COc1ccccc1-c1nnc(SCC(=O)C(C#N)c2nc3ccccc3[nH]2)n1C1CCCCC1` (stereo unspecified) [SMR000067321], the IC50 is 52.2 µM.
The compound `CN1CCN(CC2=c3oc(=O)c(=C4C=CCC=N4)cc3C=CC2=O)CC1` [(3E)-8-[(4-methylpiperazin-1-yl)methyl]-3-(1H-pyridin-2-ylidene)chromene-2,7-dione] yielded a half-maximal inhibitory concentration (IC50) of 52.2 µM.
`CCOc1cc(CN=Nc2nc(O)c(CC(=O)O)s2)ccc1OS(=O)(=O)c1ccc(C)cc1` [{2-[(3-ethoxy-4-{[(4-methylphenyl)sulfonyl]oxy}benzylidene)hydrazono]-4-oxo-1,3-thiazolidin-5-yl}acetic acid]: the IC50 is 47.8 µM.
Take `NC(=NNC=c1ccc(=C2C=CC(=O)C(C(=O)O)=C2)o1)N[N+](=O)[O-]` [5-(5-{2-[amino(nitroimino)methyl]carbonohydrazonoyl}-2-furyl)-2-hydroxybenzoic acid]: the IC50 was 10.2 µM.

One may read the IC50 as the concentration needed to halve the response being measured. Higher therefore signals a need for much substance.
